How the values were obtained:
[1] = system: Influenza A virus; experiment: Antiviral activity against influenza A virus A/Sydney/5/1997 (H3N2) infected in MDCK cells assessed as reduction in cytopathic effect incubated for 48 hrs by crystal violet staining based plaque assay; format: functional, organism-based
[2] = system: Influenza A virus; experiment: Antiviral activity against influenza A virus A/PuertoRico/8/1934 (H1N1) infected in MDCK cells assessed as reduction in cytopathic effect incubated for 48 hrs by crystal violet staining based plaque assay; format: functional, organism-based
[3] = system: Influenza A virus; experiment: Antiviral activity against influenza A virus A/duck/Hokkaido/Vac-3/2007 (H5N1) infected in MDCK cells assessed as reduction in cytopathic effect incubated for 48 hrs by crystal violet staining based plaque assay; format: functional, organism-based
[4] = Cytotoxicity against MDCK cells assessed as reduction in cell viability measured after 48 hrs by WST-1 assay; format: toxicity, cell-based, Canis lupus familiaris; details: dog
[5] = system: Influenza A virus; experiment: Antiviral activity against influenza A virus A/WSN/33 (H1N1) infected in MDCK cells assessed as reduction in cytopathic effect incubated for 48 hrs by crystal violet staining based plaque assay; format: functional, organism-based
[6] = system: rhinovirus B14; experiment: Antiviral activity against Human rhinovirus 14 infected in human HeLa Ohio cells pretreated with cell for 2 hrs followed by viral infection for 1 hrs by plaque assay; format: functional, organism-based; details: Rhinovirus B
[7] = system: Influenza A virus; experiment: Antiviral activity against Influenza A virus A/Panama/2007/99 (H3N2) infected in human A549 cells pretreated with cell for 2 hrs followed by viral infection for 1 hrs by plaque assay; format: functional, organism-based
[8] = system: A549; experiment: Cytotoxicity against human A549 cells incubated for 48 hrs by cell Titer-Glo assay; format: functional
[9] = system: Influenza A virus; experiment: Antiviral activity against Influenza A virus A/Vietnam/1203/04 (H5N1) HALo infected in human A549 cells pretreated with cell for 2 hrs followed by viral infection for 1 hrs by plaque assay; format: functional, organism-based
[10] = system: Hepatitis C virus; experiment: Antiviral activity against Hepatitis C virus infected in human Huh7.5 cells pretreated with cell for 2 hrs followed by viral infection for 1 hrs by plaque assay; format: functional, organism-based, Hepacivirus hominis
[11] = molecular target: Phosphatidylinositol 4-phosphate 3-kinase C2 domain-containing subunit beta (Homo sapiens, UniProt O00750); experiment: Inhibition of PIK3C2beta (unknown origin) by KINOMEscan method
[12] = system: Influenza A virus; experiment: Antiviral activity against Influenza A virus A/WSN/33 (H1N1) infected in human A549 cells pretreated with cell for 2 hrs followed by viral infection for 1 hrs by plaque assay; format: functional, organism-based
[13] = system: Influenza A virus; experiment: Antiviral activity against influenza A virus A/WSN/1933 (H1N1) infected in HEK293T cells assessed as reduction in cytopathic effect incubated for 24 hrs; format: functional, organism-based; details: HEK-293T
[14] = system: Influenza B virus; experiment: Antiviral activity against influenza B virus infected in HEK293T cells assessed as reduction in cytopathic effect incubated for 24 hrs; format: functional, organism-based; details: HEK-293T
[15] = Cytotoxicity against MDCK cells assessed as reduction in cell viability measured after 48 hrs by CCK-8 assay; format: toxicity, cell-based, Canis lupus familiaris; details: dog
[16] = Selectivity index, ratio of IC50 for cytotoxicity against MDCK cells to EC50 for antiviral activity Influenza A virus A/California/04/2009 (H1N1) infected in MDCK cells; format: toxicity, cell-based; details: dog, read-out: Selectivity Index
[17] = Selectivity index, ratio of IC50 for cytotoxicity against MDCK cells to EC50 for antiviral activity Influenza A virus A/Vietnam/1203/2004 (H5N1) infected in MDCK cells; format: toxicity, cell-based; details: dog, read-out: Selectivity Index
[18] = system: Influenza A virus; experiment: Antiviral activity against Influenza A virus A/California/04/2009 (H1N1) infected in MDCK cells pretreated with cell for 30 mins followed by viral infection and measured for 72 hrs by luminescence based assay; format: functional, organism-based
[19] = system: Influenza A virus; experiment: Antiviral activity against Influenza A virus A/Vietnam/1203/2004 (H5N1) infected in MDCK cells pretreated with cell for 30 mins followed by viral infection and measured for 72 hrs by luminescence based assay; format: functional, organism-based
[20] = Cytotoxicity against MDCK cells assessed as reduction in cell viability measured after 72 hrs by CCK8 assay; format: toxicity, cell-based, Canis lupus familiaris; details: dog
[21] = system: Influenza A virus; experiment: Antiviral activity against influenza A virus A/Anhui/1/2005 (H5N1) infected in MDCK cells assessed as reduction in cytopathic effect incubated for 72 hrs by CPE assay; format: functional, organism-based
[22] = system: Influenza A virus; experiment: Antiviral activity against Influenza A virus A/PR/8/34 (H1N1) infected in human A549 cells pretreated with cell for 3 hrs followed by viral infection and measured for 24 hrs; format: functional, organism-based
[23] = Cytotoxicity against human A549 cells incubated for 48 hrs by neutral red uptake assay; format: toxicity, cell-based
[24] = Cytotoxicity against MDCK cells assessed as reduction in cell viability measured after 72 hrs by fluorescence based assay; format: toxicity, Canis lupus familiaris; details: dog
[25] = system: Influenza A virus; experiment: Antiviral activity against influenza A virus A/WSN/1933 (H1N1) infected in MDCK cells assessed as reduction in cytopathic effect by fluorescence based analysis; format: functional, organism-based
[26] = system: Influenza A virus; experiment: Antiviral activity against Influenza A virus A (H1N1); format: functional, organism-based
[27] = Cytotoxicity against MDCK cells; format: toxicity, cell-based, Canis lupus familiaris; details: dog
[28] = Cytotoxicity against MDCK cells assessed as reduction in cell viability measured after 72 hrs by MTT assay; format: toxicity, cell-based, Canis lupus familiaris; details: dog
[29] = system: Influenza A virus; experiment: Antiviral activity against influenza A virus H1N1,A/WSN/1933 infected in MDCK cells assessed as reduction in plaque formation incubated for 72 hrs by crystal violet staining based analysis; format: functional, organism-based; details: H1N1,A/WSN/1933, MDCK
[30] = system: Influenza A virus; experiment: Antiviral activity against influenza A virus H5N1,A/Vietnam/1194/2004 infected in MDCK cells assessed as reduction in plaque formation incubated for 72 hrs by crystal violet staining based analysis; format: functional, organism-based; details: H5N1,A/Vietnam/1194/2004, MDCK
[31] = system: Influenza A virus; experiment: Antiviral activity against Influenza A virus A/Perth/16/2009 (H3N2) infected in MDCK cells measured after 24 hrs post infection; format: functional, organism-based
[32] = system: Influenza A virus; experiment: Antiviral activity against Influenza A virus A/California/7/2009 (H1N1) infected in MDCK cells measured after 24 hrs post infection; format: functional, organism-based
[33] = system: Influenza B virus; experiment: Antiviral activity against influenza B virus B/Florida/04/2006 infected in MDCK cells measured after 24 hrs post infection; format: functional, organism-based; details: B/Florida/04/2006, MDCK
[34] = Cytotoxicity against MDCK cell incubated for 72 hrs by EZ-Cytox cell viability assay; format: toxicity, cell-based, Canis lupus familiaris; details: dog, MDCK cells

Phosphatidylinositol 4-phosphate 3-kinase C2 domain-containing subunit beta, sequence (O00750 whole entry, the tested form may be a part): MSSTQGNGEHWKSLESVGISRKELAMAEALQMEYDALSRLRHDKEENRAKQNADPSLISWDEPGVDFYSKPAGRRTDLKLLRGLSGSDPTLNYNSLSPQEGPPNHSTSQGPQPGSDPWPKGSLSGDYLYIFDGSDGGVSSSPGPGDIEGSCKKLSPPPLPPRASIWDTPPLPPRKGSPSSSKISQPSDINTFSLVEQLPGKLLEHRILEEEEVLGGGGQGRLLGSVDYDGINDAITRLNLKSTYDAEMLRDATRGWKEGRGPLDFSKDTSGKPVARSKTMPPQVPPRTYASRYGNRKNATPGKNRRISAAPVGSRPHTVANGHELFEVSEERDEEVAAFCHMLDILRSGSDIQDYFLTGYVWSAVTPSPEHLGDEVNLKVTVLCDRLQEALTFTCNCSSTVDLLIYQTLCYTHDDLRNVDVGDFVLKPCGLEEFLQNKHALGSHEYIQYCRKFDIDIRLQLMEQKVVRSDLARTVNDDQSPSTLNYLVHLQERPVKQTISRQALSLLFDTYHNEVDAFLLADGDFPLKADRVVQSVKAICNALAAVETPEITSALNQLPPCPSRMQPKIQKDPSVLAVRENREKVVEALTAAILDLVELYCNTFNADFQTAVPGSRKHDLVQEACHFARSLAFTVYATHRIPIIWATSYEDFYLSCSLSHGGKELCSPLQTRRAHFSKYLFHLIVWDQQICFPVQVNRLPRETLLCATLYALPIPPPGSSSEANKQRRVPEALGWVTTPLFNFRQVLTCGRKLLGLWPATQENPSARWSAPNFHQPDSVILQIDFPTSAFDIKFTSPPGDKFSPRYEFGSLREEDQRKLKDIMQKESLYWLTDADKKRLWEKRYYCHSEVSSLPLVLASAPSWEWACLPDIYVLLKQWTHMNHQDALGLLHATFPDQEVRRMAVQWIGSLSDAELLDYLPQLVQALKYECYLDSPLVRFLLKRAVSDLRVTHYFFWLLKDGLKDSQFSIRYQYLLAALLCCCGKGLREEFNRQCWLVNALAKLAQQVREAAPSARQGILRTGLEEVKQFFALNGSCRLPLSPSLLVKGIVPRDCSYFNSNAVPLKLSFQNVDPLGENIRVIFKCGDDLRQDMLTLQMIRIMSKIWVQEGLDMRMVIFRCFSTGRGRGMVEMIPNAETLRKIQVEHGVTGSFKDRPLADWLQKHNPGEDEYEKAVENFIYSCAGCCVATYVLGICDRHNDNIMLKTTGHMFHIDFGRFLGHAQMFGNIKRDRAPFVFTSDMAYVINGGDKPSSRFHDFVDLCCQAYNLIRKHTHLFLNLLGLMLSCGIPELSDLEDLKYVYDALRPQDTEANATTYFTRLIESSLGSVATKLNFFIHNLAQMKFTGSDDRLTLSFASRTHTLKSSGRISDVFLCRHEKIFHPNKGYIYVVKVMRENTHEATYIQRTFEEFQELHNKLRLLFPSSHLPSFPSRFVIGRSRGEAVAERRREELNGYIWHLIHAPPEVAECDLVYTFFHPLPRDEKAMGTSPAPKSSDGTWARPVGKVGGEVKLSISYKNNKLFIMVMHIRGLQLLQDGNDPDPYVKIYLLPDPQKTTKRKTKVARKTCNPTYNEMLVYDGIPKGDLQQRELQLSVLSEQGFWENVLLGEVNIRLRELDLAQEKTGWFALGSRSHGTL

Structure (SMILES): OC(CN1CCCCC1)Cn1c2c(c3ccccc31)CCCC2 (stereo unspecified)
- EC50 [1]: 44.7 µM
- EC50 [2]: 30.7 µM
- EC50 [3]: 39.8 µM
- CC50 at 48 h [4]: > 200 µM
- EC50 [5]: 35.6 µM

Structure (SMILES): O=C(Cc1cccs1)Nc1cccc(-c2ccc3nnc(-c4cccnc4)n3n2)c1
- EC50 [6]: 50 nM
- EC50 [7]: 1220 nM
- CC50 [8]: > 50 µM
- EC50 [9]: 1770 nM
- EC50 [10]: 760 nM
- EC50 [11]: 430 nM
- EC50 [12]: 2050 nM

Structure (SMILES): C/C(=C\CC/C(C)=C/C[C@]1(O)C(=O)c2c(O)cc(C)c3c(O)c(C)c(O)c(c23)C1=O)CC/C=C(\CO)CC[C@@H](O)C(C)(C)O
- EC50 [13]: 280 nM
- EC50 [14]: 1220 nM
- CC50 at 48 h [15]: > 100 µM

Structure (SMILES): CC1CC2=C(NC(=O)NC2c2ccc(O)c(Br)c2)c2ccccc21 (stereo unspecified)
- selectivity ratio [16]: > 510
- selectivity ratio [17]: > 1090
- EC50 [18]: 98 nM
- EC50 [19]: 46 nM

Structure (SMILES): CCCC(=O)c1c(O)c(CC2=C(O)C(C)(C)C(O)=C(C(C)=O)C2=O)c(O)c(Cc2c(O)c(CC3=C(O)C(C)(C)C(O)=C(C(C)=O)C3=O)c(O)c(C(=O)CCC)c2O)c1O
- CC50 at 72 h [20]: > 400 µM
- EC50 [21]: 16.6 µM

Structure (SMILES): O=C(CSc1nnnn1-c1ccccc1)NCc1ccccc1
- EC50 [22]: 46.4 µM
- CC50 at 48 h [23]: > 150 µM

Structure (SMILES): CCCCN1Cc2ccccc2Oc2ccccc2S1(=O)=O
- CC50 at 72 h [24]: > 100 µM
- EC50 [25]: 380 nM

Structure (SMILES): Cc1cccc(N2CCN(Cc3n[nH]c(=O)n3Cc3cccc(F)c3)CC2)c1C
- CC50 at 72 h [24]: > 100 µM
- EC50 [25]: 170 nM

Structure (SMILES): C=C1Cc2cc(C(F)(F)F)ccc2C(=O)NCC(C)/C(=N/OC)CCCCOC1=O (stereo unspecified)
- EC50 [26]: 570 nM
- CC50 [27]: > 100 µM

Structure (SMILES): Cc1cc(C(=O)NC(C)C23CC4CC(CC(C4)C2)C3)c(C)o1 (stereo unspecified)
- CC50 at 72 h [28]: 73 µM
- EC50 [29]: 69 nM
- EC50 [30]: 80 nM

Structure (SMILES): COc1ccccc1-c1cc2c(Nc3ccccc3)nccc2n1C
- EC50 [31]: 8.29 µM
- EC50 [32]: 1170 nM
- EC50 [33]: 12.9 µM
- CC50 at 72 h [34]: 27.2 µM
